# Reference: PubChem BioAssay (NCI)
# Values joined by “and” are separate entries in the source; they are usually repeats but may differ in a detail not shown here. Equal entries are not always repeated.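 Step 1: Grow cells in 96-well plates. Step 2: Expose to compound for 48 hours at 5 concentrations. Step 3: Interpolate endpoints linearly; if unreached, use highest concentration. At the GI50, growth is halved. TGI: concentration producing complete growth inhibition.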
# Key:
# Assay in all cases: DTP human tumour cell line panel, 48 h
# SF-268 CNS = tested on: SF-268 CNS
# DLD-1 colon = tested on: DLD-1 colon
# 786-0 renal = tested on: 786-0 renal
# HT29 colon = tested on: HT29 colon
# MOLT-4 leukemia = tested on: MOLT-4 leukemia
# CCRF-CEM leukemia = tested on: CCRF-CEM leukemia
# DMS 273 small cell lung = tested on: DMS 273 small cell lung
# NCI-H23 lung = tested on: NCI-H23 lung
# SN12C renal = tested on: SN12C renal
# SR leukemia = tested on: SR leukemia
# SW-620 colon = tested on: SW-620 colon
# K-562 leukemia = tested on: K-562 leukemia
# OVCAR-3 ovarian = tested on: OVCAR-3 ovarian
# OVCAR-8 ovarian = tested on: OVCAR-8 ovarian
# UACC-257 melanoma = tested on: UACC-257 melanoma
# HCC-2998 colon = tested on: HCC-2998 colon
# SK-MEL-5 melanoma = tested on: SK-MEL-5 melanoma
# UACC-62 melanoma = tested on: UACC-62 melanoma
# SNB-78 CNS = tested on: SNB-78 CNS
# DMS 114 small cell lung = tested on: DMS 114 small cell lung
# RPMI-8226 leukemia = tested on: RPMI-8226 leukemia
# M19-MEL melanoma = tested on: M19-MEL melanoma
# NCI-H522 lung = tested on: NCI-H522 lung
# LOX IMVI melanoma = tested on: LOX IMVI melanoma
# KM20L2 colon = tested on: KM20L2 colon
# HCT-116 colon = tested on: HCT-116 colon
# LXFL 529 NSCLC = tested on: LXFL 529 NSCLC
# SK-MEL-28 melanoma = tested on: SK-MEL-28 melanoma
# RXF 393 renal = tested on: RXF 393 renal
# HCT-15 colon = tested on: HCT-15 colon
# KM12 colon = tested on: KM12 colon
# U251 CNS = tested on: U251 CNS
# ACHN renal = tested on: ACHN renal
# OVCAR-4 ovarian = tested on: OVCAR-4 ovarian
# COLO 205 colon = tested on: COLO 205 colon
# SK-MEL-2 melanoma = tested on: SK-MEL-2 melanoma
# M14 melanoma = tested on: M14 melanoma
# SF-295 CNS = tested on: SF-295 CNS
# HL-60(TB) leukemia = tested on: HL-60(TB) leukemia
smiles,measurement,setting,value
O=C1/C(=C/c2ccccc2)CN(C(=O)Oc2ccc([N+](=O)[O-])cc2)C/C1=C\c1ccccc1,GI50,SF-268 CNS,3.11 µM
same,GI50,DLD-1 colon,1.2 µM
same,TGI,DLD-1 colon,4.83 µM and 3.45 µM
same,GI50,786-0 renal,1.74 µM
same,TGI,786-0 renal,3.55 µM
same,TGI,HT29 colon,4.36 µM and 4.04 µM
same,GI50,MOLT-4 leukemia,1.21 µM
same,TGI,MOLT-4 leukemia,4.83 µM and 4.45 µM
same,GI50,CCRF-CEM leukemia,1.72 µM
same,TGI,CCRF-CEM leukemia,6.5 µM and 8.22 µM
same,GI50,DMS 273 small cell lung,1.22 µM
same,TGI,DMS 273 small cell lung,2.94 µM and 3.17 µM
same,GI50,NCI-H23 lung,9.79 µM
same,GI50,SN12C renal,3.45 µM
same,TGI,SN12C renal,7.62 µM
same,GI50,SR leukemia,0.261 µM
same,TGI,SR leukemia,5.54 µM and 0.775 µM
same,GI50,SW-620 colon,1.27 µM
same,TGI,SW-620 colon,2.47 µM
same,GI50,K-562 leukemia,1.79 µM
same,TGI,K-562 leukemia,5.33 µM
same,TGI,OVCAR-3 ovarian,5.58 µM
same,GI50,OVCAR-8 ovarian,1.86 µM
same,TGI,OVCAR-8 ovarian,3.74 µM and 4.18 µM
same,GI50,UACC-257 melanoma,6.29 µM
same,TGI,UACC-257 melanoma,8.79 µM
same,GI50,HCC-2998 colon,1.33 µM
same,TGI,HCC-2998 colon,5.99 µM and 3.3 µM
same,GI50,SK-MEL-5 melanoma,4.12 µM
same,TGI,SK-MEL-5 melanoma,5.38 µM
same,GI50,UACC-62 melanoma,3.81 µM
same,TGI,SNB-78 CNS,28.5 µM
same,GI50,DMS 114 small cell lung,1.68 µM
same,TGI,DMS 114 small cell lung,4.63 µM and 3.84 µM
same,GI50,RPMI-8226 leukemia,0.0844 µM
same,TGI,RPMI-8226 leukemia,0.428 µM and 0.424 µM
same,GI50,M19-MEL melanoma,1.26 µM
same,TGI,M19-MEL melanoma,3.56 µM and 2.75 µM
same,GI50,NCI-H522 lung,2.15 µM
same,TGI,NCI-H522 lung,8.54 µM and 5.13 µM
same,GI50,LOX IMVI melanoma,1.57 µM
same,TGI,LOX IMVI melanoma,1.26 µM and 3.36 µM
same,GI50,KM20L2 colon,3.9 µM
same,TGI,KM20L2 colon,8.2 µM
same,GI50,HCT-116 colon,0.303 µM
same,TGI,HCT-116 colon,1.65 µM and 1.08 µM
same,GI50,LXFL 529 NSCLC,1.41 µM
same,TGI,LXFL 529 NSCLC,5.41 µM and 2.9 µM
same,TGI,SK-MEL-28 melanoma,7.65 µM
same,GI50,RXF 393 renal,1.59 µM
same,TGI,RXF 393 renal,4.51 µM
same,GI50,HCT-15 colon,2.74 µM
same,TGI,HCT-15 colon,5.63 µM
same,GI50,KM12 colon,1.88 µM
same,TGI,KM12 colon,2.89 µM and 5.49 µM
same,GI50,U251 CNS,1.56 µM
same,TGI,U251 CNS,4.2 µM and 3.31 µM
same,GI50,ACHN renal,4.94 µM
same,GI50,OVCAR-4 ovarian,1.77 µM
same,TGI,OVCAR-4 ovarian,7.87 µM and 4.15 µM
same,GI50,COLO 205 colon,4.95 µM
same,TGI,SK-MEL-2 melanoma,29.2 µM
same,GI50,M14 melanoma,1.71 µM
same,TGI,M14 melanoma,6.74 µM and 3.51 µM
same,GI50,SF-295 CNS,2.07 µM
same,TGI,SF-295 CNS,7.93 µM and 4.98 µM
same,GI50,HL-60(TB) leukemia,1.73 µM
same,TGI,HL-60(TB) leukemia,3.97 µM and 5.9 µM
